Patent US20170304411A1, “TOPICAL FORMULATION FOR TREATING SKIN OR MUCOSAL INFECTIONS, PREPARATION METHOD AND USES THEREOF” (HPRD - HEALTH PRODUCTS RESEARCH AND DEVELOPMENT LDA, priority 2014, published 2017)

Tests used:
[1] = tested on: biofilms from C. albicans strains; conditions: clotrimazole alone, without bromelain
[2] = tested on: biofilms from C. albicans strains; experiment: Checkerboard bromelain/clotrimazole, metabolic activity of biofilms (XTT reduction assay); assay type: cell-based; conditions: increasing concentrations of clotrimazole alone; tested C. albicans strains
Excerpt: Following the washing step of microplates, the number of metabolically active cells available to metabolize XTT is reduced, leading to the overall reduction on metabolic activity.

[3] = tested on: planktonic cells of different Candida species, including C. albicans; experiment: Direct fungistatic or fungicidal activity against planktonic cells; assay type: cell-based; conditions: previous studies by the applicant's team
Method: When bromelain is added, an increase of activity reduction is observed, dependent on the enzyme concentration (the addition of a 250 μg/mL bromelain solution leads to metabolic activity reductions near 80% for both strains). […] Thus, the increase in metabolic activity reduction shown for the combination of bromelain and clotrimazole is not due to a direct fungistatic activity of the enzyme, but to a degradation of the biofilm matrix. The degradation of this matrix allows for the penetration of clotrimazole in the biofilm favouring its antimicrobial action.

[4] = applied with no dilution on skin and mucosa as occlusive patch; cited from earlier work
[5] = after application in the eye; cited from earlier work

## Clc1ccccc1C(c1ccccc1)(c1ccccc1)n1ccnc1 [clotrimazole]
[1]
  reduction of biofilm biomass: limited
[2]
  reduction of metabolic activity: ≤ 60%

## bromelain
[3]
  direct fungistatic or fungicidal activity: does not exhibit direct fungistatic or fungicidal activity

## CC(=O)OCC(COC(C)=O)OC(C)=O [triacetin]
[4]
  irritation potential: low irritation potential
[5]
  ocular irritation: induces an ocular irritation it does not cause harm
